Data taken from US9120749B2, “Quinoline derivatives and MELK inhibitors containing the same” (ONCOTHERAPY SCIENCE, INC., priority 2010, dated 2015).
Structures can show the parent of a compound that is named as a salt. Where two headings read alike, the source gives them in different places.

What was measured:
MELK = MELK (Homo sapiens, UniProt Q14680); assay: Kinase assay: MELK activity, phosphorylation of FITC-labeled histone H3 peptide measured by IMAP fluorescence polarization; type: biochemical; details: read-out: IC50 (μM) (kinase assay)
How it was run: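 Fluorescence polarization was measured 0.5 h (room temperature) after quenching with threefold volume of progressive binding solution. Test compounds from 12.5 mM DMSO stocks were assayed at 1% DMSO.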

T47D cells = assay: Cell-based assay: anti-proliferative activity, Cell Counting Kit-8, 72 hours (T47D)
How it was run: (§1)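 Proliferation read with Cell Counting Kit-8 after 72 hours of inhibitor treatment, from seeding of 2,000–3,000 cells/well. Lines: T47D, A549, BT-549; HT-1197, lacking MELK by western blot, served as negative control. IC50 derived.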

A549 cells = assay: Cell-based assay: anti-proliferative activity, Cell Counting Kit-8, 72 hours (A549); details: 72 hours
How it was run: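 A549 cells seeded in 96-well plates and exposed to candidate inhibitors for 72 hours. Growth measured with Cell Counting Kit-8; IC50 values calculated from the dose response.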

HT-1197 cells = assay: Cell-based assay: anti-proliferative activity, Cell Counting Kit-8, 72 hours (HT-1197, negative control without MELK expression); details: HT1197 cells (negative control, no MELK expression), 72 hours
How it was run: as §1

22Rv1 cells = assay: Cell-based assay: anti-proliferative activity, Cell Counting Kit-8, 72 hours (22Rv1)
DU4475 cells = assay: Cell-based assay: anti-proliferative activity, Cell Counting Kit-8, 72 hours (DU4475)
[1] = MELK kinase assay, IMAP fluorescence polarization, 50 micro-M ATP

MELK, sequence (Q14680 whole entry, looked up): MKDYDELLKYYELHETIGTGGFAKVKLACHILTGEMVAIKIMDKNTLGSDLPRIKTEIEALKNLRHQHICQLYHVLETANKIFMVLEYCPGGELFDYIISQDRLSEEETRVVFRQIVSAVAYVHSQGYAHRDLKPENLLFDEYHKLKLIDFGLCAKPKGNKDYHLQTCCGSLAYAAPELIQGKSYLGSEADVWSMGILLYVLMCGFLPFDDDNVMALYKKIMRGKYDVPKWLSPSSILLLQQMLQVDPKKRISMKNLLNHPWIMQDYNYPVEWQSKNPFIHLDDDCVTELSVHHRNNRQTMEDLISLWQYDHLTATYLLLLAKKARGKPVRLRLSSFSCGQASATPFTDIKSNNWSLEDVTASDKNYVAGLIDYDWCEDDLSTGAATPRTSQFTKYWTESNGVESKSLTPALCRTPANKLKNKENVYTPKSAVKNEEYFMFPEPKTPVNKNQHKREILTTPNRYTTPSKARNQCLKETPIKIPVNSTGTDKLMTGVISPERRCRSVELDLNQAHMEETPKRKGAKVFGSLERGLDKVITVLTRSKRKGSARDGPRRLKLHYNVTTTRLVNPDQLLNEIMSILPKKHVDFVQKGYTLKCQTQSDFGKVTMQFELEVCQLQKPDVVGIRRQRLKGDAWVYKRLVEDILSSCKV

Row | SMILES | IC50 (T47D cells; Homo sapiens, T47D, 72 h) [µM] | IC50 (A549 cells; Homo sapiens, A549, 72 h) [µM] | IC50 (HT-1197 cells; Homo sapiens, HT1197, 72 h) [µM] | IC50 (22Rv1 cells; Homo sapiens, 22Rv1, 72 h) [µM] | IC50 (DU4475 cells; Homo sapiens, DU-4475, 72 h) [µM] | IC50 (MELK) [µM] | also measured
1 | CN1CCN(CCc2cccc(Nc3c(C(=O)C4CC4)cnc4ccc(-c5cc(F)c(O)c(Cl)c5)cc34)c2)CC1 [Example 828, (6-(3-chloro-5-fluoro-4-hydroxyphenyl)-4-(3-(2-(4-methylpiperazin-1-yl)ethyl)phenylamino)quinolin-3-yl)(cyclopropyl)methanone] | 5.7 | 0.23 | 9.5 | 0.72 | 0.16 |  | IC50 (MELK; [1]): 0.017 µM
2 | O=C(c1cnc2ccc(-c3cc(Cl)c(O)c(Cl)c3)cc2c1Nc1cccc(CCN2CCCC2)c1)C1CC1 [Example 798, cyclopropyl(6-(3,5-dichloro-4-hydroxyphenyl)-4-(3-(2-(pyrrolidin-1-yl)ethyl)phenylamino)quinolin-3-yl)methanone hydrochloride] |  |  |  |  |  |  | IC50 (MELK; hydrochloride): 0.0029 µM; IC50 (T47D cells; 72 hours, hydrochloride): 0.16 µM; IC50 (A549 cells; hydrochloride): 0.019 µM; IC50 (22Rv1 cells; hydrochloride): 0.092 µM; IC50 (DU4475 cells; hydrochloride): 0.02 µM
3 | CC(=O)c1cnc2ccc(-c3cc(Cl)c(O)c(Cl)c3)cc2c1Nc1cnn(C2CCN(C)CC2)c1 [Example 836, 1-(6-(3,5-dichloro-4-hydroxyphenyl)-4-((1-(1-methylpiperidin-4-yl)-1H-pyrazol-4-yl)amino)quinolin-3-yl)ethanone dihydrochloride] | 0.35 | 0.45 |  | 0.27 | 0.082 |  | IC50 (MELK; [1]): 0.0014 µM
4 | CC(=O)c1cnc2ccc(-c3cc(Cl)c(O)c(Cl)c3)cc2c1Nc1cccc(CCN2CCCC2)c1 [Example 802, 1-(6-(3,5-dichloro-4-hydroxyphenyl)-4-(3-(2-(pyrrolidin-1-yl)ethyl)phenylamino)quinolin-3-yl)ethanone hydrochloride] |  |  |  |  |  |  | IC50 (MELK; hydrochloride): 0.0021 µM; IC50 (T47D cells; 72 hours, hydrochloride): 0.45 µM; IC50 (A549 cells; hydrochloride): 0.08 µM; IC50 (22Rv1 cells; hydrochloride): 0.16 µM; IC50 (DU4475 cells; hydrochloride): 0.072 µM
5 | CC(=O)c1cnc2ccc(-c3cc(Cl)c(O)c(Cl)c3)cc2c1N[C@H]1CC[C@H](CN2CCN(C)CC2)CC1 [Example 782, 1-(6-(3,5-dichloro-4-hydroxyphenyl)-4-(1R,4R)-4-((4-methylpiperazin-1-yl)methyl)cyclohexylamino)quinolin-3-yl)ethanone hydrochloride] | 0.15 | 0.23 | 5.9 | 0.41 | 0.16 |  | 
6 | O=C(c1cnc2ccc(-c3cc(Cl)c(O)c(Cl)c3)cc2c1Nc1cccc(CCN2CCCC2)c1)C1CC1 [Example 797, Cyclopropyl{6-(3,5-dichloro-4-hydroxyphenyl)-4-[3-(2-(pyrrolidin-1-yl)ethyl)phenylamino]quinolin-3-yl}methanone] | 0.31 | 0.022 |  | 0.12 | 0.03 | 0.0056 | 
7 | CC(=O)c1cnc2ccc(-c3cc(F)c(O)c(Cl)c3)cc2c1Nc1cccc(CCN2CCCC2)c1 [Example 803, 1-(6-(3-chloro-5-fluoro-4-hydroxyphenyl)-4-(3-(2-(pyrrolidin-1-yl)ethyl)phenylamino)quinolin-3-yl)ethanone] | 0.65 | 0.17 |  | 0.44 | 0.12 | 0.016 | 
8 | CC(=O)c1cnc2ccc(-c3cc(Cl)c(O)c(Cl)c3)cc2c1N[C@H]1CC[C@H](CN2CCC[C@@H]2CO)CC1 [Example 812] | 0.15 | 0.18 |  | 0.2 | 0.086 | 0.0017 | 
9 | CC(=O)c1cnc2ccc(-c3cc(Cl)c(O)c(Cl)c3)cc2c1N[C@H]1CC[C@H](CN2CCC[C@H]2CO)CC1 [Example 792, 1-(6-(3,5-dichloro-4-hydroxyphenyl)-4-((1S,4r)-4-(((S)-2-(hydroxymethyl)pyrrolidin-1-yl)methyl)cyclohexylamino)quinolin-3-yl)ethanone] | 0.079 | 0.1 |  | 0.12 | 0.073 | 0.0011 | 
10 | CC(=O)c1cnc2ccc(-c3cc(Cl)c(O)c(Cl)c3)cc2c1N[C@H]1CCC[C@@H](CN2CCN(C)CC2)C1 [Example 835, 1-(6-(3,5-dichloro-4-hydroxyphenyl)-4-((1S,3R)-3-((4-methylpiperazin-1-yl)methyl)cyclohexylamino)quinolin-3-yl)ethanone hydrochloride] | 0.58 | 0.79 | 2.7 | 0.81 | 0.6 |  | 
11 | CC(=O)c1cnc2ccc(-c3cc(F)c(O)c(Cl)c3)cc2c1Nc1ccc(NCCN(C)C)nc1 [Example 762, 1-(6-(3-chloro-5-fluoro-4-hydroxyphenyl)-4-(6-(2-(dimethylamino)ethylamino)pyridin-3-ylamino)quinolin-3-yl)ethanone] | 0.12 | 0.25 | 5.2 |  | 0.089 | 0.014 | 
12 | COc1cc(-c2ccc3ncc(C(C)=O)c(N[C@H]4CC[C@H](CN5CCC(O)C5)CC4)c3c2)cc(Cl)c1O (stereo partly drawn) [Example 749] | 0.12 | 0.22 | 6.4 |  | 0.21 | 0.0017 | 
13 | O=C(c1cnc2ccc(-c3cc(F)c(O)c(Cl)c3)cc2c1Nc1cccc(CCN2CCCC2)c1)C1CC1 [Example 800, (6-(3-chloro-5-fluoro-4-hydroxyphenyl)-4-(3-(2-(pyrrolidin-1-yl)ethyl)phenylamino)quinolin-3-yl)(cyclopropyl)methanone hydrochloride] |  |  |  |  |  |  | IC50 (MELK; hydrochloride): 0.012 µM; IC50 (T47D cells; 72 hours, hydrochloride): 0.26 µM; IC50 (A549 cells; hydrochloride): 0.041 µM; IC50 (22Rv1 cells; hydrochloride): 0.17 µM; IC50 (DU4475 cells; hydrochloride): 0.046 µM
14 | CC(=O)c1cnc2ccc(-c3cc(Cl)c(O)c(Cl)c3)cc2c1Nc1cccc(CCN2CCCC2)c1 [Example 801, 1-{6-(3,5-Dichloro-4-hydroxyphenyl)-4-[3-(2-(pyrrolidin-1-yl)ethyl)phenylamino]quinolin-3-yl}ethanone] | 0.37 | 0.081 |  | 0.15 | 0.06 | 0.004 | 
15 | COc1cc(-c2ccc3ncc(C(C)=O)c(N[C@@H]4CCC[C@@H](CN(C)C)C4)c3c2)cc(Cl)c1O [Example 752, 1-(6-(3-chloro-4-hydroxy-5-methoxyphenyl)-4-((1R,3R)-3-((dimethylamino)methyl)cyclohexylamino)quinolin-3-yl)ethanone] | 0.18 | 0.2 | 3.4 |  | 0.17 | 0.001 | 
16 | CCC(=O)c1cnc2ccc(-c3cc(Cl)c(O)c(Cl)c3)cc2c1N[C@H]1CC[C@H](N(C)C)CC1 [Example 754, 1-(6-(3,5-dichloro-4-hydroxyphenyl)-4-((trans-4-(dimethylamino)cyclohexyl)amino)quinolin-3-yl)propan-1-one] | 0.19 | 0.22 | 10 |  | 0.072 | 0.02 | 
17 | CC(=O)c1cnc2ccc(-c3cc(F)c(O)c(Cl)c3)cc2c1N[C@@H]1CCC[C@@H](CN(C)C)C1 [Example 751, 1-(6-(3-chloro-5-fluoro-4-hydroxyphenyl)-4-((1R,3R)-3-((dimethylamino)methyl)cyclohexylamino)quinolin-3-yl)ethanone] | 0.32 | 0.58 | 1.7 |  | 0.29 | 0.0067 | 
18 | CCC(=O)c1cnc2ccc(-c3cc(F)c(O)c(Cl)c3)cc2c1N[C@H]1CC[C@H](N(C)C)CC1 [Example 757, 1-(6-(3-chloro-5-fluoro-4-hydroxyphenyl)-4-((trans-4-(dimethylamino)cyclohexyl)amino)quinolin-3-yl)propan-1-one] | 0.064 | 0.15 | 0.76 |  | 0.069 | 0.0062 | 
19 | CC(=O)c1cnc2ccc(-c3cc(Cl)c(O)c(Cl)c3)cc2c1Nc1ccc(NCCN(C)C)nc1 [Example 758, 1-(6-(3,5-dichloro-4-hydroxyphenyl)-4-(6-(2-(dimethylamino)ethylamino)pyridin-3-ylamino)quinolin-3-yl)ethanone] | 0.15 | 0.22 | 24 |  | 0.055 | 0.0053 | 
20 | CN(C)CCNc1ccc(Nc2c(C(=O)C3CC3)cnc3ccc(-c4cc(F)c(O)c(Cl)c4)cc23)cn1 [Example 777, (6-(3-chloro-5-fluoro-4-hydroxyphenyl)-4-(6-(2-(dimethylamino)ethylamino)pyridin-3-ylamino)quinolin-3-yl)(cyclopropyl)methanone trihydrochloride] |  |  |  |  |  |  | IC50 (T47D cells; 72 hours, trihydrochloride): 0.12 µM; IC50 (A549 cells; trihydrochloride): 0.12 µM; IC50 (HT-1197 cells; trihydrochloride): 1.6 µM; IC50 (22Rv1 cells; trihydrochloride): 0.17 µM; IC50 (DU4475 cells; trihydrochloride): 0.047 µM
21 | CN(C)CCNc1ccc(Nc2c(C(=O)C3CC3)cnc3ccc(-c4cc(Cl)c(O)c(Cl)c4)cc23)cn1 [Example 747, cyclopropyl(6-(3,5-dichloro-4-hydroxyphenyl)-4-(6-(2-(dimethylamino)ethylamino)pyridin-3-ylamino)quinolin-3-yl)methanone] | 0.16 | 0.091 | 2.6 |  | 0.043 | 0.0043 | 
22 | CN(C)CCNc1ccc(Nc2c(C(=O)C3CC3)cnc3ccc(-c4cc(F)c(O)c(Cl)c4)cc23)cn1 [Example 776, (6-(3-chloro-5-fluoro-4-hydroxyphenyl)-4-(6-(2-(dimethylamino)ethylamino)pyridin-3-ylamino)quinolin-3-yl)(cyclopropyl)methanone] | 0.073 | 0.08 | 1.2 | 0.15 | 0.038 |  | 
